Laboratory results: PubChem BioAssay (NCI)
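Step 1: Grow cells in 96-well plates. Step 2: Expose to compound for 48 hours at 5 concentrations. Step 3: Interpolate endpoints linearly; if unreached, use highest concentration. TGI marks complete inhibition of growth.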

System: SF-539 CNS
Assay: NCI-60 cell line screen, 48 h

In the case of `Clc1cc(Cl)cc(C=NC23CC4CC(CC(C4)C2)C3)c1`, the TGI is reported as over 10 µM.

System: SK-MEL-2 melanoma
Assay: NCI-60 cell line screen, 48 h

Compared with `Nc1cccc(/C=C/C(=O)N2CCN(CCOC(c3ccccc3)c3ccccc3)CC2)c1`, `C[C@@H](c1ccccc1)N1CN(C(=O)OCc2ccccc2)C(C)(C)CC1=O` is higher in TGI: 29.7 µM for the first, over 100 µM for the second.

`CC1CC2OC(=O)C(C)C2CC2(C)C(OC3OC(CO)C(O)C(O)C3O)OCCC12` (stereo not given) and `Clc1cc(Cl)cc(C=NC23CC4CC(CC(C4)C2)C3)c1` cannot be ordered by TGI: over 100 µM for the first, over 10 µM for the second.

Going from `CC1=CC(=O)c2ccccc2C1=O` to `CC(=O)Oc1ccc(-c2cc3ccccc3oc2=O)cc1`, the TGI rises from 22.7 µM to over 100 µM.

`O=C(/C=C/c1ccc(O)c(-c2cc(C(=O)/C=C/c3ccc(O)cc3)c(O)cc2O)c1)c1ccc(O)cc1O` gave a TGI of over 50 µM.

System: SK-MEL-28 melanoma
Assay: NCI-60 cell line screen, 48 h

First: Nc1cccc(/C=C/C(=O)N2CCN(CCOC(c3ccccc3)c3ccccc3)CC2)c1
Second: C[C@@H](c1ccccc1)N1CN(C(=O)OCc2ccccc2)C(C)(C)CC1=O
The TGI of the first is lower: 28.9 µM for the first, over 100 µM for the second.

`CC1CC2OC(=O)C(C)C2CC2(C)C(OC3OC(CO)C(O)C(O)C3O)OCCC12` (stereo not given) and `Clc1cc(Cl)cc(C=NC23CC4CC(CC(C4)C2)C3)c1` cannot be ordered by TGI: over 100 µM for the first, over 10 µM for the second.

Going from `CC1=CC(=O)c2ccccc2C1=O` to `CC(=O)Oc1ccc(-c2cc3ccccc3oc2=O)cc1`, the TGI rises from 16.6 µM to over 100 µM.

`O=C(/C=C/c1ccc(O)c(-c2cc(C(=O)/C=C/c3ccc(O)cc3)c(O)cc2O)c1)c1ccc(O)cc1O` was tested, and the TGI was 22.1 µM.

System: SK-MEL-5 melanoma
Assay: NCI-60 cell line screen, 48 h

First: Nc1cccc(/C=C/C(=O)N2CCN(CCOC(c3ccccc3)c3ccccc3)CC2)c1
Second: C[C@@H](c1ccccc1)N1CN(C(=O)OCc2ccccc2)C(C)(C)CC1=O
The TGI of the first is lower: 29.4 µM for the first, over 100 µM for the second.

`CC1CC2OC(=O)C(C)C2CC2(C)C(OC3OC(CO)C(O)C(O)C3O)OCCC12` (stereo not given) and `Clc1cc(Cl)cc(C=NC23CC4CC(CC(C4)C2)C3)c1` cannot be ordered by TGI: over 100 µM for the first, over 10 µM for the second.

Compared with `CC1=CC(=O)c2ccccc2C1=O`, `O=C(/C=C/c1ccc(O)c(-c2cc(C(=O)/C=C/c3ccc(O)cc3)c(O)cc2O)c1)c1ccc(O)cc1O` is higher in TGI: 5.92 µM for the first, over 50 µM for the second.

System: SK-OV-3 ovarian
Assay: NCI-60 cell line screen, 48 h

Compared with `Nc1cccc(/C=C/C(=O)N2CCN(CCOC(c3ccccc3)c3ccccc3)CC2)c1`, `C[C@@H](c1ccccc1)N1CN(C(=O)OCc2ccccc2)C(C)(C)CC1=O` is higher in TGI: 32.7 µM for the first, over 100 µM for the second.

`CC1CC2OC(=O)C(C)C2CC2(C)C(OC3OC(CO)C(O)C(O)C3O)OCCC12` (stereo not given) and `Clc1cc(Cl)cc(C=NC23CC4CC(CC(C4)C2)C3)c1` cannot be ordered by TGI: over 100 µM for the first, over 10 µM for the second.

First: CC1=CC(=O)c2ccccc2C1=O
Second: O=C(/C=C/c1ccc(O)c(-c2cc(C(=O)/C=C/c3ccc(O)cc3)c(O)cc2O)c1)c1ccc(O)cc1O
The TGI of the first is 1.9-fold lower: 25.7 µM for the first, 48.3 µM for the second.

System: SN12C renal
Assay: NCI-60 cell line screen, 48 h

Going from `Nc1cccc(/C=C/C(=O)N2CCN(CCOC(c3ccccc3)c3ccccc3)CC2)c1` to `C[C@@H](c1ccccc1)N1CN(C(=O)OCc2ccccc2)C(C)(C)CC1=O`, the TGI rises from 33.9 µM to over 100 µM.

`CC1CC2OC(=O)C(C)C2CC2(C)C(OC3OC(CO)C(O)C(O)C3O)OCCC12` (stereo not given) and `Clc1cc(Cl)cc(C=NC23CC4CC(CC(C4)C2)C3)c1` cannot be ordered by TGI: over 100 µM for the first, over 10 µM for the second.

Going from `CC1=CC(=O)c2ccccc2C1=O` to `CC(=O)Oc1ccc(-c2cc3ccccc3oc2=O)cc1`, the TGI rises from 25 µM to over 100 µM.

With `O=C(/C=C/c1ccc(O)c(-c2cc(C(=O)/C=C/c3ccc(O)cc3)c(O)cc2O)c1)c1ccc(O)cc1O` the TGI was over 50 µM.

System: SNB-19 CNS
Assay: NCI-60 cell line screen, 48 h

Going from `Nc1cccc(/C=C/C(=O)N2CCN(CCOC(c3ccccc3)c3ccccc3)CC2)c1` to `C[C@@H](c1ccccc1)N1CN(C(=O)OCc2ccccc2)C(C)(C)CC1=O`, the TGI rises from 32.4 µM to over 100 µM.

`CC1CC2OC(=O)C(C)C2CC2(C)C(OC3OC(CO)C(O)C(O)C3O)OCCC12` (stereo not given) and `Clc1cc(Cl)cc(C=NC23CC4CC(CC(C4)C2)C3)c1` cannot be ordered by TGI: over 100 µM for the first, over 10 µM for the second.

Compared with `CC1=CC(=O)c2ccccc2C1=O`, `CC(=O)Oc1ccc(-c2cc3ccccc3oc2=O)cc1` is higher in TGI: 33.5 µM for the first, over 100 µM for the second.

With `O=C(/C=C/c1ccc(O)c(-c2cc(C(=O)/C=C/c3ccc(O)cc3)c(O)cc2O)c1)c1ccc(O)cc1O` the TGI was over 50 µM.

System: SNB-75 CNS
Assay: NCI-60 cell line screen, 48 h

Compared with `Nc1cccc(/C=C/C(=O)N2CCN(CCOC(c3ccccc3)c3ccccc3)CC2)c1`, `C[C@@H](c1ccccc1)N1CN(C(=O)OCc2ccccc2)C(C)(C)CC1=O` is higher in TGI: 26.2 µM for the first, over 100 µM for the second.

`CC1CC2OC(=O)C(C)C2CC2(C)C(OC3OC(CO)C(O)C(O)C3O)OCCC12` (stereo not given) and `Clc1cc(Cl)cc(C=NC23CC4CC(CC(C4)C2)C3)c1` cannot be ordered by TGI: over 100 µM for the first, over 10 µM for the second.

First: CC1=CC(=O)c2ccccc2C1=O
Second: CC(=O)Oc1ccc(-c2cc3ccccc3oc2=O)cc1
The TGI of the first is lower: 22.1 µM for the first, over 100 µM for the second.

`O=C(/C=C/c1ccc(O)c(-c2cc(C(=O)/C=C/c3ccc(O)cc3)c(O)cc2O)c1)c1ccc(O)cc1O` was tested, and the TGI was 36 µM.

System: SR leukemia
Assay: NCI-60 cell line screen, 48 h

First: Nc1cccc(/C=C/C(=O)N2CCN(CCOC(c3ccccc3)c3ccccc3)CC2)c1
Second: C[C@@H](c1ccccc1)N1CN(C(=O)OCc2ccccc2)C(C)(C)CC1=O
The TGI of the first is lower: 30.9 µM for the first, over 100 µM for the second.

`CC1CC2OC(=O)C(C)C2CC2(C)C(OC3OC(CO)C(O)C(O)C3O)OCCC12` (stereo not given) and `Clc1cc(Cl)cc(C=NC23CC4CC(CC(C4)C2)C3)c1` cannot be ordered by TGI: over 100 µM for the first, over 10 µM for the second.

`CC1=CC(=O)c2ccccc2C1=O` and `CC(=O)Oc1ccc(-c2cc3ccccc3oc2=O)cc1` cannot be ordered by TGI: over 29 µM for the first, over 100 µM for the second.

In the case of `O=C(/C=C/c1ccc(O)c(-c2cc(C(=O)/C=C/c3ccc(O)cc3)c(O)cc2O)c1)c1ccc(O)cc1O`, the TGI is reported as 28.4 µM.

System: SW-620 colon
Assay: NCI-60 cell line screen, 48 h

Going from `Nc1cccc(/C=C/C(=O)N2CCN(CCOC(c3ccccc3)c3ccccc3)CC2)c1` to `C[C@@H](c1ccccc1)N1CN(C(=O)OCc2ccccc2)C(C)(C)CC1=O`, the TGI rises from 35 µM to over 100 µM.

`CC1CC2OC(=O)C(C)C2CC2(C)C(OC3OC(CO)C(O)C(O)C3O)OCCC12` (stereo not given) and `Clc1cc(Cl)cc(C=NC23CC4CC(CC(C4)C2)C3)c1` cannot be ordered by TGI: over 100 µM for the first, over 10 µM for the second.

First: CC1=CC(=O)c2ccccc2C1=O
Second: CC(=O)Oc1ccc(-c2cc3ccccc3oc2=O)cc1
The TGI of the first is lower: 4.82 µM for the first, over 100 µM for the second.

For `O=C(/C=C/c1ccc(O)c(-c2cc(C(=O)/C=C/c3ccc(O)cc3)c(O)cc2O)c1)c1ccc(O)cc1O`, the TGI was over 50 µM.

System: T-47D breast
Assay: NCI-60 cell line screen, 48 h

Compared with `Nc1cccc(/C=C/C(=O)N2CCN(CCOC(c3ccccc3)c3ccccc3)CC2)c1`, `C[C@@H](c1ccccc1)N1CN(C(=O)OCc2ccccc2)C(C)(C)CC1=O` is higher in TGI: 33.1 µM for the first, over 100 µM for the second.

`CC1CC2OC(=O)C(C)C2CC2(C)C(OC3OC(CO)C(O)C(O)C3O)OCCC12` (stereo not given) and `Clc1cc(Cl)cc(C=NC23CC4CC(CC(C4)C2)C3)c1` cannot be ordered by TGI: over 100 µM for the first, over 10 µM for the second.

Compared with `CC1=CC(=O)c2ccccc2C1=O`, `CC(=O)Oc1ccc(-c2cc3ccccc3oc2=O)cc1` is higher in TGI: 5.33 µM for the first, over 100 µM for the second.

Work on `O=C(/C=C/c1ccc(O)c(-c2cc(C(=O)/C=C/c3ccc(O)cc3)c(O)cc2O)c1)c1ccc(O)cc1O` yielded a TGI of over 50 µM.

System: TK-10 renal
Assay: NCI-60 cell line screen, 48 h

First: Nc1cccc(/C=C/C(=O)N2CCN(CCOC(c3ccccc3)c3ccccc3)CC2)c1
Second: C[C@@H](c1ccccc1)N1CN(C(=O)OCc2ccccc2)C(C)(C)CC1=O
The TGI of the first is lower: 28.3 µM for the first, over 100 µM for the second.

`CC1CC2OC(=O)C(C)C2CC2(C)C(OC3OC(CO)C(O)C(O)C3O)OCCC12` (stereo not given) and `Clc1cc(Cl)cc(C=NC23CC4CC(CC(C4)C2)C3)c1` cannot be ordered by TGI: over 100 µM for the first, over 10 µM for the second.

First: CC1=CC(=O)c2ccccc2C1=O
Second: CC(=O)Oc1ccc(-c2cc3ccccc3oc2=O)cc1
The TGI of the first is lower: 34.1 µM for the first, over 100 µM for the second.

For `O=C(/C=C/c1ccc(O)c(-c2cc(C(=O)/C=C/c3ccc(O)cc3)c(O)cc2O)c1)c1ccc(O)cc1O`, the TGI was over 50 µM.

System: U251 CNS
Assay: NCI-60 cell line screen, 48 h

Compared with `Nc1cccc(/C=C/C(=O)N2CCN(CCOC(c3ccccc3)c3ccccc3)CC2)c1`, `C[C@@H](c1ccccc1)N1CN(C(=O)OCc2ccccc2)C(C)(C)CC1=O` is higher in TGI: 29.3 µM for the first, over 100 µM for the second.

`CC1CC2OC(=O)C(C)C2CC2(C)C(OC3OC(CO)C(O)C(O)C3O)OCCC12` (stereo not given) and `Clc1cc(Cl)cc(C=NC23CC4CC(CC(C4)C2)C3)c1` cannot be ordered by TGI: over 100 µM for the first, over 10 µM for the second.

First: CC1=CC(=O)c2ccccc2C1=O
Second: CC(=O)Oc1ccc(-c2cc3ccccc3oc2=O)cc1
The TGI of the first is lower: 26.4 µM for the first, over 100 µM for the second.

`O=C(/C=C/c1ccc(O)c(-c2cc(C(=O)/C=C/c3ccc(O)cc3)c(O)cc2O)c1)c1ccc(O)cc1O` was tested, and the TGI was over 50 µM.

System: UACC-257 melanoma
Assay: NCI-60 cell line screen, 48 h

Compared with `Nc1cccc(/C=C/C(=O)N2CCN(CCOC(c3ccccc3)c3ccccc3)CC2)c1`, `C[C@@H](c1ccccc1)N1CN(C(=O)OCc2ccccc2)C(C)(C)CC1=O` is higher in TGI: 31.5 µM for the first, over 100 µM for the second.

`CC1CC2OC(=O)C(C)C2CC2(C)C(OC3OC(CO)C(O)C(O)C3O)OCCC12` (stereo not given) and `Clc1cc(Cl)cc(C=NC23CC4CC(CC(C4)C2)C3)c1` cannot be ordered by TGI: over 100 µM for the first, over 10 µM for the second.

Compared with `CC1=CC(=O)c2ccccc2C1=O`, `CC(=O)Oc1ccc(-c2cc3ccccc3oc2=O)cc1` is higher in TGI: 9.08 µM for the first, over 100 µM for the second.

`O=C(/C=C/c1ccc(O)c(-c2cc(C(=O)/C=C/c3ccc(O)cc3)c(O)cc2O)c1)c1ccc(O)cc1O` gave a TGI of over 50 µM.

System: UACC-62 melanoma
Assay: NCI-60 cell line screen, 48 h

Going from `Nc1cccc(/C=C/C(=O)N2CCN(CCOC(c3ccccc3)c3ccccc3)CC2)c1` to `C[C@@H](c1ccccc1)N1CN(C(=O)OCc2ccccc2)C(C)(C)CC1=O`, the TGI rises from 29.6 µM to over 100 µM.

`CC1CC2OC(=O)C(C)C2CC2(C)C(OC3OC(CO)C(O)C(O)C3O)OCCC12` (stereo not given) and `Clc1cc(Cl)cc(C=NC23CC4CC(CC(C4)C2)C3)c1` cannot be ordered by TGI: 30.6 µM for the first, over 10 µM for the second.

First: CC1=CC(=O)c2ccccc2C1=O
Second: O=C(/C=C/c1ccc(O)c(-c2cc(C(=O)/C=C/c3ccc(O)cc3)c(O)cc2O)c1)c1ccc(O)cc1O
The TGI of the first is 2-fold lower: 10.3 µM for the first, 20.4 µM for the second.

System: UO-31 renal
Assay: NCI-60 cell line screen, 48 h

First: Nc1cccc(/C=C/C(=O)N2CCN(CCOC(c3ccccc3)c3ccccc3)CC2)c1
Second: CC(=O)Oc1ccc(-c2cc3ccccc3oc2=O)cc1
The TGI of the first is lower: 30.5 µM for the first, over 100 µM for the second.

Going from `CC1=CC(=O)c2ccccc2C1=O` to `O=C(/C=C/c1ccc(O)c(-c2cc(C(=O)/C=C/c3ccc(O)cc3)c(O)cc2O)c1)c1ccc(O)cc1O`, the TGI rises from 14 µM to over 50 µM.
